In PMC3179935, “Gallus gallus NEU3 sialidase as model to study protein evolution mechanism based on rapid evolving loops” (BMC Biochemistry, 2011):

Target: T1, Mm NEU3 (Mm NEU3-HA) (Mus musculus, UniProt Q9JMH7)
T1 construct: HA tag, pcDNAI, transiently expressed in COS7, total cell lysate
T1 sequence (Q9JMH7 1-418): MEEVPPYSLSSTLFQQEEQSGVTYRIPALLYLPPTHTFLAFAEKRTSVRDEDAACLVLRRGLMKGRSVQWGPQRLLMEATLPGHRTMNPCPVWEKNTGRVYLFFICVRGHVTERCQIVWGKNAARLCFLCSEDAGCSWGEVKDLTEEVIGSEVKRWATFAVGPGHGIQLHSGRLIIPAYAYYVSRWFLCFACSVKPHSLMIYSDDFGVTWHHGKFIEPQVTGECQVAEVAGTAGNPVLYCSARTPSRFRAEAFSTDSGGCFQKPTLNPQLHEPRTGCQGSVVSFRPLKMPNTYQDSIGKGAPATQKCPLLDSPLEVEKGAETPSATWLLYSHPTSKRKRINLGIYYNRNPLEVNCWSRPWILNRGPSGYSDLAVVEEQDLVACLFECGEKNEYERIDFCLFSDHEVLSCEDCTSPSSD
Test: sialidase activity in transfected COS7 lysate
Format: biochemical
Settings: positive control; pH range 2.5-5.5; 37 °C

For CC(=O)N[C@H]1[C@H]([C@H](O)[C@H](O)CO)O[C@@](Oc2ccc3c(C)cc(=O)oc3c2)(C(=O)O)C[C@@H]1O [4-MU-NeuAc], the “sialidase activity in transfected COS7 lysate” value was “pcDNAI-Mm NEU3-HA transfected cells were used as control”.
